The values that follow come from article PMC7883042 (Peptide Science (Hoboken, N.j.), 2021).

In the assay the target is SARS‐CoV‐2 RBD/ACE2 PPI in A549 cells overexpressing ACE2 (Severe acute respiratory syndrome coronavirus 2, UniProt P0DTC2).

Consider “Ac-IEEQAKTFLDKFNHER8EDLFYQS5-NH2 (sidechain bridge or staple) [Peptide 8]”, for which the “entry of His‐tagged SARS‐CoV RBD into cells (immunofluorescence)” value is “show entry”.
